Assays:
Format in all cases: in vivo
transplanted rice = assay: Test Example 1: preemergence treatment under submerged conditions, effect on crop; conditions: dose 2.52 g/a
Excerpt: (§1) Test on the Herbicidal Effects in Preemergence Treatment on Weeds Under Submerged Conditions
(§2) Alluvial soil was put in 1/30000-are styrol cups and admixed with water so that it was submerged at a depth of 4 cm. In each cup, seeds of barnyardgrass, bulrush and ducksalad were sown together, and rice seedlings at the 2.5-leaf stage were transplanted. On the same day as the seeding, emulsifiable concentrates containing compounds of the present invention formulated in accordance with Formulation Example 2 were applied to the water surfaces at predetermined doses after diluted with water. The cups were placed in a greenhouse at 25 to 30° C. to grow the plants. Three weeks after the application, the herbicidal effects against various plants were determined on the following evaluation scale.
(§3) 5 mortality of 90% or above (nearly complete death)
(§4) 4 mortality of at least 70% and less than 90%
(§5) 3 mortality of at least 40% and less than 70%
(§6) 2 mortality of at least 20% and less than 40%
(§7) 1 mortality of at least 5% and less than 20%
(§8) 0 mortality of less than 5% (almost ineffective)
(§9) A: barnyardgrass, B: bulrush, C: ducksalad, D: large crabgrass, E: giant foxtail, F: wild oat, G: water foxtail, H: Italian ryegrass, I: velvetleaf, J: common ragweed, K: redroot pigweed, L: common lambsquater, M: posumbu knotweed, N: common chickweed, O: beadstraw, a: transplanted rice, b: corn, c: soybean, d: direct-seeded rice, e: wheat, f: sugar beet.
(§10) The doses (g/a) represents the amounts in g per 1 are (a) applied after adjustment of concentration adjustment.

ducksalad [1] = assay: Test Example 2: herbicidal effects during the vegetation period under submerged conditions; conditions: treatment during the vegetation period under submerged conditions; dose 2.52 g/a
Description: (§11) Test on the Herbicidal Effects on Weeds During the Vegetation Period Under Submerged Conditions
(§12) Alluvial soil was put in 1/30000-are styrol cups and admixed with water so that it was submerged at a depth of 4 cm. In each cup, seeds of barnyardgrass, bulrush and ducksalad were sown together, and the cups were placed in a greenhouse at 25 to 30° C. to grow the plants. When the barnyardgrass, bulrush and ducksalad reached the 1- or 2-leaf stage, emulsifiable concentrates containing compounds of the present invention formulated in accordance with Formulation Example 2 were applied to the water surfaces at predetermined doses after diluted with water. Three weeks after the application, the herbicidal effects against various plants were determined on the same evaluation scale as in Test Example 1.
as §9, §10

bulrush [2] = assay: as above; conditions: treatment during the vegetation period under submerged conditions; dose 2.52 g/a
Description: as §11, §12, §9, §10

barnyardgrass [3] = assay: as above; conditions: treatment during the vegetation period under submerged conditions; dose 2.52 g/a
Description: as §11, §12, §9, §10

Italian ryegrass [4] = assay: Test Example 4: herbicidal effect in foliage treatment; conditions: dose 3.2 g/a, three weeks after the application
Excerpt: (§13) Test on the Herbicidal Effect in Foliage Treatment
(§14) Sterilized diluvial soil was put in plastic boxes with a length of 21 cm, a width of 13 cm and a depth of 7 cm, and seeds of barnyardgrass, large crabgrass, giant foxtail, wild oat, blackgrass, velvetleaf, common ragweed, redroot pigweed, common lambsquater, posumbu knotweed, common chickweed, corn, soybean, rice, wheat and sugar beet were sown in spots and covered with an about 1.5 cm-thick soil layer. The boxes were placed in a greenhouse at 25 to 30° C. to grow the plants. After 14 days, emulsifiable concentrates containing compounds of the present invention formulated in accordance with Formulation Example 2 were uniformly applied to the foliage at predetermined doses through a small sprayer after diluted with water. Three weeks after the application, the herbicidal effects against various plants were determined on the same evaluation scale as in Test Example 1.
as §9, §10

water foxtail [5] = assay: as above; conditions: dose 3.2 g/a, three weeks after the application
Excerpt: as §13, §14, §9, §10

large crabgrass [6] = assay: as above; conditions: dose 3.2 g/a, three weeks after the application
Excerpt: as §13, §14, §9, §10

redroot pigweed [7] = assay: as above; conditions: dose 3.2 g/a, three weeks after the application
Excerpt: as §13, §14, §9, §10

velvetleaf = assay: as above; conditions: dose 3.2 g/a, three weeks after the application
Excerpt: as §13, §14, §9, §10

giant foxtail [8] = assay: as above; conditions: dose 3.2 g/a, three weeks after the application
Excerpt: as §13, §14, §9, §10

common lambsquater [9] = assay: as above; conditions: dose 3.2 g/a, three weeks after the application
Excerpt: as §13, §14, §9, §10

common chickweed [10] = assay: as above; conditions: dose 3.2 g/a, three weeks after the application
Excerpt: as §13, §14, §9, §10

common ragweed [11] = assay: as above; conditions: dose 3.2 g/a, three weeks after the application
Excerpt: as §13, §14, §9, §10

barnyardgrass [12] = assay: as above; conditions: dose 3.2 g/a, three weeks after the application
Excerpt: as §13, §14, §9, §10

posumbu knotweed [13] = assay: as above; conditions: dose 3.2 g/a, three weeks after the application
Excerpt: as §13, §14, §9, §10

Italian ryegrass [14] = assay: Test Example 3: herbicidal effects in soil treatment; conditions: dose 3.2 g/a
Excerpt: (§15) Test on the Herbicidal Effects in Soil Treatment
as §14, with “chickweed” for “chickweed,”, “Emulsifiable” for “The boxes were placed in a greenhouse at 25 to 30° C. to grow the plants. After 14 days, emulsifiable”, “soil surfaces” for “foliage”, “dilute” for “diluted”
as §9, §10

water foxtail [15] = assay: as above; conditions: dose 3.2 g/a
Excerpt: as §15
as §14, with “chickweed” for “chickweed,”, “Emulsifiable” for “The boxes were placed in a greenhouse at 25 to 30° C. to grow the plants. After 14 days, emulsifiable”, “soil surfaces” for “foliage”, “dilute” for “diluted”
as §9, §10

large crabgrass [16] = assay: as above; conditions: dose 3.2 g/a
Excerpt: as §15
as §14, with “chickweed” for “chickweed,”, “Emulsifiable” for “The boxes were placed in a greenhouse at 25 to 30° C. to grow the plants. After 14 days, emulsifiable”, “soil surfaces” for “foliage”, “dilute” for “diluted”
as §9, §10

redroot pigweed [17] = assay: as above; conditions: dose 3.2 g/a
Excerpt: as §15
as §14, with “chickweed” for “chickweed,”, “Emulsifiable” for “The boxes were placed in a greenhouse at 25 to 30° C. to grow the plants. After 14 days, emulsifiable”, “soil surfaces” for “foliage”, “dilute” for “diluted”
as §9, §10

giant foxtail [18] = assay: as above; conditions: dose 3.2 g/a
Excerpt: as §15
as §14, with “chickweed” for “chickweed,”, “Emulsifiable” for “The boxes were placed in a greenhouse at 25 to 30° C. to grow the plants. After 14 days, emulsifiable”, “soil surfaces” for “foliage”, “dilute” for “diluted”
as §9, §10

common lambsquater [19] = assay: as above; conditions: dose 3.2 g/a
Excerpt: as §15
as §14, with “chickweed” for “chickweed,”, “Emulsifiable” for “The boxes were placed in a greenhouse at 25 to 30° C. to grow the plants. After 14 days, emulsifiable”, “soil surfaces” for “foliage”, “dilute” for “diluted”
as §9, §10

common chickweed [20] = assay: as above; conditions: dose 3.2 g/a
Excerpt: as §15
as §14, with “chickweed” for “chickweed,”, “Emulsifiable” for “The boxes were placed in a greenhouse at 25 to 30° C. to grow the plants. After 14 days, emulsifiable”, “soil surfaces” for “foliage”, “dilute” for “diluted”
as §9, §10

common ragweed [21] = assay: as above; conditions: dose 3.2 g/a
Excerpt: as §15
as §14, with “chickweed” for “chickweed,”, “Emulsifiable” for “The boxes were placed in a greenhouse at 25 to 30° C. to grow the plants. After 14 days, emulsifiable”, “soil surfaces” for “foliage”, “dilute” for “diluted”
as §9, §10

barnyardgrass [22] = assay: as above; conditions: dose 3.2 g/a
Excerpt: as §15
as §14, with “chickweed” for “chickweed,”, “Emulsifiable” for “The boxes were placed in a greenhouse at 25 to 30° C. to grow the plants. After 14 days, emulsifiable”, “soil surfaces” for “foliage”, “dilute” for “diluted”
as §9, §10

posumbu knotweed [23] = assay: as above; conditions: dose 3.2 g/a
Excerpt: as §15
as §14, with “chickweed” for “chickweed,”, “Emulsifiable” for “The boxes were placed in a greenhouse at 25 to 30° C. to grow the plants. After 14 days, emulsifiable”, “soil surfaces” for “foliage”, “dilute” for “diluted”
as §9, §10

ducksalad [24] = assay: Test Example 1: herbicidal effects in preemergence treatment under submerged conditions; conditions: dose 2.52 g/a
Excerpt: as §1, §2, §3, §4, §5, §6, §7, §8, §9, §10

bulrush [25] = assay: as above; conditions: dose 2.52 g/a
Excerpt: as §1, §2, §3, §4, §5, §6, §7, §8, §9, §10

barnyardgrass [26] = assay: as above; conditions: dose 2.52 g/a
Excerpt: as §1, §2, §3, §4, §5, §6, §7, §8, §9, §10

With `CCOC(=O)N(c1ccccc1CN1COC(C)C(C)C1=O)S(=O)(=O)C(F)(F)F` (stereo not shown) [II-71] the “a: transplanted rice, effect on crop (evaluation scale 0-5)” value (transplanted rice) was 0 (mortality of less than 5% (almost ineffective)), the “C: ducksalad, herbicidal effect (evaluation scale 0-5)” value (ducksalad [1]) was 5 (mortality of 90% or above (nearly complete death)) and the “B: bulrush, herbicidal effect (evaluation scale 0-5)” value (bulrush [2]) was 5 (mortality of 90% or above (nearly complete death)). The “A: barnyardgrass, herbicidal effect (evaluation scale 0-5)” value (barnyardgrass [3]) was 5 (mortality of 90% or above (nearly complete death)), the “H: Italian ryegrass, herbicidal effect” value (Italian ryegrass [4]) was 1 (mortality of at least 5% and less than 20%) and the “G: water foxtail, herbicidal effect” value (water foxtail [5]) was 5 (mortality of 90% or above (nearly complete death)). For the same compound, the “D: large crabgrass, herbicidal effect” value (large crabgrass [6]) was 4 (mortality of at least 70% and less than 90%), the “K: redroot pigweed, herbicidal effect” value (redroot pigweed [7]) was 0 (mortality of less than 5% (almost ineffective)) and the “I: velvetleaf, herbicidal effect” value (velvetleaf) was 5 (mortality of 90% or above (nearly complete death)). For the same compound, the “E: giant foxtail, herbicidal effect” value (giant foxtail [8]) was 4 (mortality of at least 70% and less than 90%), the “L: common lambsquater, herbicidal effect” value (common lambsquater [9]) was 0 (mortality of less than 5% (almost ineffective)) and the “N: common chickweed, herbicidal effect” value (common chickweed [10]) was 4 (mortality of at least 70% and less than 90%). The “J: common ragweed, herbicidal effect” value (common ragweed [11]) was 3 (mortality of at least 40% and less than 70%), the “A: barnyardgrass, herbicidal effect” value (barnyardgrass [12]) was 5 (mortality of 90% or above (nearly complete death)) and the “M: posumbu knotweed, herbicidal effect” value (posumbu knotweed [13]) was 0 (mortality of less than 5% (almost ineffective)). The “H: Italian ryegrass, herbicidal effect (evaluation scale 0-5)” value (Italian ryegrass [14]) was 2 (mortality of at least 20% and less than 40%), the “G: water foxtail, herbicidal effect (evaluation scale 0-5)” value (water foxtail [15]) was 5 (mortality of 90% or above (nearly complete death)) and the “D: large crabgrass, herbicidal effect (evaluation scale 0-5)” value (large crabgrass [16]) was 5 (mortality of 90% or above (nearly complete death)). For the same compound, the “K: redroot pigweed, herbicidal effect (evaluation scale 0-5)” value (redroot pigweed [17]) was 5 (mortality of 90% or above (nearly complete death)), the “E: giant foxtail, herbicidal effect (evaluation scale 0-5)” value (giant foxtail [18]) was 4 (mortality of at least 70% and less than 90%) and the “L: common lambsquater, herbicidal effect (evaluation scale 0-5)” value (common lambsquater [19]) was 0 (mortality of less than 5% (almost ineffective)). For the same compound, the “N: common chickweed, herbicidal effect (evaluation scale 0-5)” value (common chickweed [20]) was 3 (mortality of at least 40% and less than 70%), the “J: common ragweed, herbicidal effect (evaluation scale 0-5)” value (common ragweed [21]) was 5 (mortality of 90% or above (nearly complete death)) and the “A: barnyardgrass, herbicidal effect (evaluation scale 0-5)” value (barnyardgrass [22]) was 5 (mortality of 90% or above (nearly complete death)). The “M: posumbu knotweed, herbicidal effect (evaluation scale 0-5)” value (posumbu knotweed [23]) was 3 (mortality of at least 40% and less than 70%), the “C: ducksalad, herbicidal effect (evaluation scale 0-5)” value (ducksalad [24]) was 5 (mortality of 90% or above (nearly complete death)) and the “B: bulrush, herbicidal effect (evaluation scale 0-5)” value (bulrush [25]) was 5 (mortality of 90% or above (nearly complete death)). For the same compound, the “A: barnyardgrass, herbicidal effect (evaluation scale 0-5)” value (barnyardgrass [26]) was 5 (mortality of 90% or above (nearly complete death)).

From patent publication US20120029187A1, “HALOALKYLSULFONANILIDE DERIVATIVE” (Nissan Chemical Industries, Ltd., priority 2009, published 2012)
